Test results from ChEMBL document CHEMBL2062475, “Langkolide, a 32-membered macrolactone antibiotic produced by Streptomyces sp. Acta 3062” (J Nat Prod, 2012).
pIC50: −log10 of the molar value. The source made the active and inactive calls. No cut-off for these calls is given here.

Experiments:
Bacillus subtilis = assay: Antibacterial activity against Bacillus subtilis DSM 347 after 14 to 16 hrs by resazurin reduction assay; format: functional, organism-based
Cutibacterium acnes = assay: Antibacterial activity against Propionibacterium acnes DSM 1897 after 48 hrs by resazurin reduction assay; format: functional, organism-based
Mammaliicoccus lentus = assay: Antibacterial activity against Staphylococcus lentus DSM 6672 after 14 to 16 hrs by resazurin reduction assay; format: functional, organism-based
Xanthomonas campestris = assay: Antibacterial activity against Xanthomonas campestris DSM 2405 after 14 to 16 hrs by resazurin reduction assay; format: functional, organism-based
Nakaseomyces glabratus = assay: Antifungal activity against Candida glabrata DSM 6425 after 14 to 16 hrs by resazurin reduction assay; format: functional, organism-based
Candida albicans = assay: Antifungal activity against Candida albicans DSM 1386 after 14 to 16 hrs by resazurin reduction assay; format: functional, organism-based
NIH3T3 = assay: Cytotoxicity against mouse NIH/3T3 cells after 24 hrs by CellTiter-Blue assay; format: functional, cell-based; conditions: NIH3T3, 24 h
HepG2 = assay: Cytotoxicity against human HepG2 cells after 24 hrs by CellTiter-Blue assay; format: functional, cell-based; conditions: HepG2, 24 h
HT-29 = assay: Cytotoxicity against human HT-29 cells after 24 hrs by CellTiter-Blue assay; format: functional, cell-based; conditions: HT-29, 24 h
[1] = biological target: 3',5'-cyclic-AMP phosphodiesterase 4B (Homo sapiens, UniProt Q07343); assay: Inhibition of human recombinant PDE4B2 by HTS cAMP assay
[2] = biological target: Glycogen synthase kinase-3 beta (Homo sapiens, UniProt P49841); assay: Inhibition of recombinant GSK3beta by KinaseGlo assay
Chain of Glycogen synthase kinase-3 beta (P49841 whole entry): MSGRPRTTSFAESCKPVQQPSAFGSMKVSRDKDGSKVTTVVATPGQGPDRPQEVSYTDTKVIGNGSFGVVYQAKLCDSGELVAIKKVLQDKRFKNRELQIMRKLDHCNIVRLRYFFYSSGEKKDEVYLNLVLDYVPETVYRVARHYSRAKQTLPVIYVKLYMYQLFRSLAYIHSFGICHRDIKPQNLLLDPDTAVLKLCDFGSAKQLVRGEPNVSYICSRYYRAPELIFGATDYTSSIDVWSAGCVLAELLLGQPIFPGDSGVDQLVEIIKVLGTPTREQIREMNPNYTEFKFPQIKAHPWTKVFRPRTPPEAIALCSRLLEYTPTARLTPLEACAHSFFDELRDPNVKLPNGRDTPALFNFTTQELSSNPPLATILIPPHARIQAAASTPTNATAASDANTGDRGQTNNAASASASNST

Chain of 3',5'-cyclic-AMP phosphodiesterase 4B (Q07343 whole entry): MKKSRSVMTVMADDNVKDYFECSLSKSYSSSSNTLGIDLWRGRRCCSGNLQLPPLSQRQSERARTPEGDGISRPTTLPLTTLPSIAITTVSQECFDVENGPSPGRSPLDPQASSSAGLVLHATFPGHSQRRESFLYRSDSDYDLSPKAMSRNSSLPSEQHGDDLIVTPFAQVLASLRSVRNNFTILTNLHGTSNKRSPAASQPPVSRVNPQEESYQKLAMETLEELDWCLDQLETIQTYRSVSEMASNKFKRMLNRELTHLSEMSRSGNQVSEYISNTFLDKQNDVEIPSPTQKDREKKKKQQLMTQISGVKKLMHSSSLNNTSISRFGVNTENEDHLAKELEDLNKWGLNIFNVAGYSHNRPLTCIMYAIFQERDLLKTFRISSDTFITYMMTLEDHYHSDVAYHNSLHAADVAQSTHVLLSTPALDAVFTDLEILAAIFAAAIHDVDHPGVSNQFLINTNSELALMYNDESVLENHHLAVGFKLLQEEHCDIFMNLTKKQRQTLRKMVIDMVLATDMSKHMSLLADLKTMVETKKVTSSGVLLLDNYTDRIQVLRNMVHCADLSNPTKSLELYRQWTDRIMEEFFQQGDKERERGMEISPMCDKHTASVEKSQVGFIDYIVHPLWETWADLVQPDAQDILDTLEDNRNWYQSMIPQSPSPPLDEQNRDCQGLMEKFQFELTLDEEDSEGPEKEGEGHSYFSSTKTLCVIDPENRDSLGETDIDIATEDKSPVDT

In the case of `CC(=O)O[C@H]1C[C@@H](O)C[C@H](O)C[C@@H](O)[C@@H]2O[C@H]2[C@@H](C)[C@@H]([C@@H](C)[C@@H](O)[C@H](C)[C@@H](O)[C@@H](C)[C@@H](C)O[C@H]2CC[C@H](O[C@@H]3CC[C@@H](OC(=O)[C@H](C)[C@@H](O)/C(C)=C/c4ccc5c(c4)C(=O)C=CC5=O)[C@H](C)O3)[C@H](C)O2)OC(=O)/C=C/[C@H](C)[C@@H](O)C[C@H](O)/C=C/CC[C@@H](C)[C@@H](O)[C@H](O)[C@@]2(O)O[C@@H](C1)C[C@@H](O)[C@@H]2O` [LANGKOLIDE], the Activity (Bacillus subtilis) was “inactive”, the Activity (Cutibacterium acnes) was “inactive” and the Activity (Mammaliicoccus lentus) was “inactive”. The Activity (Xanthomonas campestris) was “inactive”, the pIC50 (Nakaseomyces glabratus) was 6.00 and the pIC50 (Candida albicans) was 5.91. For the same compound, the pIC50 (NIH3T3) was 6.31, the pIC50 (HepG2) was 5.62 and the pIC50 (HT-29) was 5.86. The pIC50 [1] was 6.32 and the pIC50 [2] was 5.66.
